Measured values: patent publication US5593984A, “Cephalosporin derivatives” (Yuhan Corporation, priority 1992, dated 1997)
In brackets after ≈: the same amount, converted by molar mass.

How the values were obtained:
Assay type in all cases: cell-based
[1] = test system: Ps. aeruginosa ATCC 10145; assay: MIC by agar dilution, Ps. aeruginosa ATCC 10145; conditions: Pseudomonas aeruginosa, ATCC10145, 17 h, Mueller-Hinton agar, read-out: Minimal Inhibitory Concentration (MIC)
Method in brief: (§1)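 We determine inhibitory concentrations by agar dilution, incubating Mueller-Hinton agar plates at 35°-37° C. for 17±1 hours after inoculation with 10^6 CFU per ml of test strain.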

[2] = test system: Ent. aerogenes IFO 12979; assay: MIC by agar dilution, Ent. aerogenes IFO 12979; conditions: Klebsiella aerogenes, IFO12979, 17 h, Mueller-Hinton agar, read-out: Minimal Inhibitory Concentration (MIC)
Method in brief: as §1

[3] = test system: Ent. cloacae IFO 13535; assay: MIC by agar dilution, Ent. cloacae IFO 13535; conditions: Enterobacter cloacae, IFO13535, 17 h; Ent. cloacae IFO 13535; agar dilution, Mueller-Hinton agar; read-out: Minimal Inhibitory Concentration (MIC)
Method in brief: as §1

[4] = test system: S. epidermidis ATCC 12228; assay: MIC by agar dilution, S. epidermidis ATCC 12228; conditions: Staphylococcus epidermidis, ATCC12228, 17 h; S. epidermidis ATCC 12228; agar dilution, Mueller-Hinton agar; read-out: Minimal Inhibitory Concentration (MIC)
Method in brief: as §1

[5] = test system: Staph. aureus Smith; assay: MIC by agar dilution, Staph. aureus Smith; conditions: Staphylococcus aureus, 17 h, Mueller-Hinton agar, read-out: Minimal Inhibitory Concentration (MIC)
Method in brief: as §1

[6] = test system: K. pneumoniae NCTC 9632; assay: MIC by agar dilution, K. pneumoniae NCTC 9632; conditions: Klebsiella pneumoniae, NCTC9632, 17 h; K. pneumoniae NCTC 9632; agar dilution, Mueller-Hinton agar; read-out: Minimal Inhibitory Concentration (MIC)
Method in brief: as §1

[7] = test system: E. coli NIHJ JC-2; assay: MIC by agar dilution, E. coli NIHJ JC-2; conditions: Escherichia coli, NIHJJC2, 17 h; E. coli NIHJ JC-2; agar dilution, Mueller-Hinton agar; read-out: Minimal Inhibitory Concentration (MIC)
Method in brief: as §1

[8] = test system: Prov. stuartii IFO 12930; assay: MIC by agar dilution, Prov. stuartii IFO 12930; conditions: Providencia stuartii, IFO12930, 17 h, Mueller-Hinton agar, read-out: Minimal Inhibitory Concentration (MIC)
Method in brief: as §1

[9] = test system: P. vulgaris NCTC 8313; assay: MIC by agar dilution, P. vulgaris NCTC 8313; conditions: Proteus vulgaris, NCTC8313, 17 h; P. vulgaris NCTC 8313; agar dilution, Mueller-Hinton agar; read-out: Minimal Inhibitory Concentration (MIC)
Method in brief: as §1

[10] = test system: M. morganii DY-1; assay: MIC by agar dilution, M. morganii DY-1; conditions: Morganella morganii, DY1, 17 h; M. morganii DY-1; agar dilution, Mueller-Hinton agar; read-out: Minimal Inhibitory Concentration (MIC)
Method in brief: as §1

[11] = test system: Ps. aeruginosa DY-2; assay: MIC by agar dilution, Ps. aeruginosa DY-2; conditions: Pseudomonas aeruginosa, DY2, 17 h; Ps. aeruginosa DY-2; agar dilution, Mueller-Hinton agar; read-out: Minimal Inhibitory Concentration (MIC)
Method in brief: as §1

[12] = test system: Staph. aureus ATCC 6538P; assay: MIC by agar dilution, Staph. aureus ATCC 6538P; conditions: Staphylococcus aureus, ATCC6538P, 17 h; Staph. aureus ATCC 6538P; agar dilution, Mueller-Hinton agar; read-out: Minimal Inhibitory Concentration (MIC)
Method in brief: as §1

[13] = test system: Staph. aureus C-5113; assay: MIC by agar dilution, Staph. aureus C-5113; conditions: Staphylococcus aureus, C5113, 17 h, Mueller-Hinton agar, read-out: Minimal Inhibitory Concentration (MIC)
Method in brief: as §1

[14] = test system: E. coli DY-1; assay: MIC by agar dilution, E. coli DY-1; conditions: Escherichia coli, DY1, 17 h; E. coli DY-1; agar dilution, Mueller-Hinton agar; read-out: Minimal Inhibitory Concentration (MIC)
Method in brief: as §1

[15] = test system: E. coli No. 29; assay: MIC by agar dilution, E. coli No. 29; conditions: Escherichia coli, 17 h; E. coli No. 29; agar dilution, Mueller-Hinton agar; read-out: Minimal Inhibitory Concentration (MIC)
Method in brief: as §1

[16] = test system: Staph. aureus C-5216; assay: MIC by agar dilution, Staph. aureus C-5216; conditions: Staphylococcus aureus, C5216, 17 h, Mueller-Hinton agar, read-out: Minimal Inhibitory Concentration (MIC)
Method in brief: as §1

[17] = test system: Ps. aeruginosa NCTC 10490; assay: MIC by agar dilution, Ps. aeruginosa NCTC 10490; conditions: Pseudomonas aeruginosa, NCTC10490, 17 h, Mueller-Hinton agar, read-out: Minimal Inhibitory Concentration (MIC)
Method in brief: as §1

[18] = test system: Ser. marcescens IFO 12648; assay: MIC by agar dilution, Ser. marcescens IFO 12648; conditions: Serratia marcescens, IFO12648, 17 h; Ser. marcescens IFO 12648; agar dilution, Mueller-Hinton agar; read-out: Minimal Inhibitory Concentration (MIC)
Method in brief: as §1

[19] = test system: Staph. aureus C-57; assay: MIC by agar dilution, Staph. aureus C-57; conditions: Staphylococcus aureus, C57, 17 h, Mueller-Hinton agar, read-out: Minimal Inhibitory Concentration (MIC)
Method in brief: as §1

[20] = test system: B. subtilis ATCC 6633; assay: MIC by agar dilution, B. subtilis ATCC 6633; conditions: Bacillus subtilis, ATCC6633, 17 h; B. subtilis ATCC 6633; agar dilution, Mueller-Hinton agar; read-out: Minimal Inhibitory Concentration (MIC)
Method in brief: as §1

Compound | MIC [1] | MIC [2] | MIC [3] | MIC [4] | MIC [5] | MIC [6] | MIC [7] | MIC [8] | MIC [9] | MIC [10] | MIC [11] | MIC [12] | MIC [13] | MIC [14] | MIC [15] | MIC [16] | MIC [17] | MIC [18] | MIC [19] | MIC [20]
CCON=C(C(=O)NC1C(=O)N2C(C(=O)[O-])=C(C[n+]3ccn4c(C(C)=O)ccc4c3)CSC12)c1csc(N)n1 (stereo not drawn) [Ex. 19, 7-β-[(Z)-2-(2-aminothiazol-4-yl)-2-ethoxyiminoacetamido]-3-(6-acetylpyrrolo[1,2-a]pyrazinium-2-yl)methyl-3-cephem-4-carboxylate] | 3.13 µg/mL (≈ 5.49 µM) | 0.012 µg/mL (≈ 0.0211 µM) | 0.2 µg/mL (≈ 0.351 µM) | 0.05 µg/mL (≈ 0.0878 µM) | 0.78 µg/mL (≈ 1.37 µM) | 0.05 µg/mL (≈ 0.0878 µM) | 0.05 µg/mL (≈ 0.0878 µM) | 0.05 µg/mL (≈ 0.0878 µM) | ≤ 0.006 µg/mL | 0.025 µg/mL (≈ 0.0439 µM) | 6.25 µg/mL (≈ 11 µM) | 0.2 µg/mL (≈ 0.351 µM) | 1.56 µg/mL (≈ 2.74 µM) | 0.025 µg/mL (≈ 0.0439 µM) | 0.05 µg/mL (≈ 0.0878 µM) | 1.56 µg/mL (≈ 2.74 µM) | 0.1 µg/mL (≈ 0.176 µM) | 0.1 µg/mL (≈ 0.176 µM) | 50 µg/mL (≈ 87.8 µM) | 0.1 µg/mL (≈ 0.176 µM)
Nc1nc(C(=NOCCF)C(=O)NC2C(=O)N3C(C(=O)[O-])=C(C[n+]4ccn5cccc5c4)CSC23)cs1 (stereo not drawn) [Ex. 5, 7-β-[(Z)-2-(2-aminothiazol-4-yl)-2-(2-fluoroethoxyimino)acetamido]-3-(pyrrolo[1,2-a]pyrazinium-2-yl)methyl-3-cephem-4-carboxylate] | 0.39 µg/mL (≈ 0.715 µM) | ≤ 0.006 µg/mL | 0.025 µg/mL (≈ 0.0458 µM) | 0.025 µg/mL (≈ 0.0458 µM) | 0.2 µg/mL (≈ 0.367 µM) | ≤ 0.006 µg/mL | 0.012 µg/mL (≈ 0.022 µM) | ≤ 0.006 µg/mL | ≤ 0.006 µg/mL | ≤ 0.006 µg/mL | 1.56 µg/mL (≈ 2.86 µM) | 0.2 µg/mL (≈ 0.367 µM) | 0.2 µg/mL (≈ 0.367 µM) | ≤ 0.006 µg/mL | ≤ 0.006 µg/mL | 0.2 µg/mL (≈ 0.367 µM) | 0.2 µg/mL (≈ 0.367 µM) | ≤ 0.006 µg/mL | 12.5 µg/mL (≈ 22.9 µM) | 0.1 µg/mL (≈ 0.183 µM)
CO/N=C(\C(=O)N[C@@H]1C(=O)N2C(C(=O)[O-])=C(C[n+]3ccn4c(CO)ccc4c3)CS[C@H]12)c1nsc(N)n1 [Ex. 50, 7-β-[(Z)-2-(5-amino-1,2,4-thiadiazol-3-yl)-2-methoxyiminoacetamido]-3-(6-hydroxymethylpyrrolo[1,2-a]-pyrazinium-2-yl)methyl-3-cephem-4-carboxylate] | 0.78 µg/mL (≈ 1.43 µM) | ≤ 0.006 µg/mL | 0.05 µg/mL (≈ 0.0918 µM) | 0.05 µg/mL (≈ 0.0918 µM) | 0.78 µg/mL (≈ 1.43 µM) | 0.012 µg/mL (≈ 0.022 µM) | ≤ 0.006 µg/mL | ≤ 0.006 µg/mL | 0.012 µg/mL (≈ 0.022 µM) | 0.012 µg/mL (≈ 0.022 µM) | 1.56 µg/mL (≈ 2.86 µM) | 0.39 µg/mL (≈ 0.716 µM) | 1.56 µg/mL (≈ 2.86 µM) | ≤ 0.006 µg/mL | ≤ 0.006 µg/mL | 0.78 µg/mL (≈ 1.43 µM) | 0.1 µg/mL (≈ 0.184 µM) | 0.012 µg/mL (≈ 0.022 µM) | 12.5 µg/mL (≈ 23 µM) | 0.1 µg/mL (≈ 0.184 µM)
CO/N=C(\C(=O)N[C@@H]1C(=O)N2C(C(=O)[O-])=C(C[n+]3ccn4c(C(C)=O)cc(Cl)c4c3)CS[C@H]12)c1csc(N)n1 [Ex. 34, 7-β-[(Z)-2-(2-aminothiazol-4-yl)2-methoxyiminoacetamido]-3-(6-acetyl-8-chloropyrrolo[1,2-a]pyrazinium-2-yl)methyl-3-cephem-4-carboxylate] | 6.25 µg/mL (≈ 10.6 µM) | 0.025 µg/mL (≈ 0.0424 µM) | 0.1 µg/mL (≈ 0.169 µM) | 0.1 µg/mL (≈ 0.169 µM) | 1.56 µg/mL (≈ 2.64 µM) | 0.025 µg/mL (≈ 0.0424 µM) | 0.05 µg/mL (≈ 0.0847 µM) | 0.025 µg/mL (≈ 0.0424 µM) | 0.012 µg/mL (≈ 0.0203 µM) | 0.05 µg/mL (≈ 0.0847 µM) | 25 µg/mL (≈ 42.4 µM) | 0.78 µg/mL (≈ 1.32 µM) | 0.78 µg/mL (≈ 1.32 µM) | 0.025 µg/mL (≈ 0.0424 µM) | 0.025 µg/mL (≈ 0.0424 µM) | 0.78 µg/mL (≈ 1.32 µM) | 3.13 µg/mL (≈ 5.3 µM) | 0.05 µg/mL (≈ 0.0847 µM) | 25 µg/mL (≈ 42.4 µM) | 0.39 µg/mL (≈ 0.661 µM)
CO/N=C(\C(=O)N[C@@H]1C(=O)N2C(C(=O)[O-])=C(C[n+]3ccn4c(SCCO)ccc4c3)CS[C@H]12)c1nsc(N)n1 [Ex. 53, 7-β-[(Z)-2-(5-amino-1,2,4-thiadiazol-3-yl)-2-methoxyiminoacetamido]-3-[6-(2-hydroxyethylthio)pyrrolo[1,2-a]-pyrazinium-2-yl]methyl-3-cephem-4-carboxylate] | 0.78 µg/mL (≈ 1.32 µM) | 0.025 µg/mL (≈ 0.0423 µM) | 0.1 µg/mL (≈ 0.169 µM) | 3.39 µg/mL (≈ 5.74 µM) | 3.13 µg/mL (≈ 5.3 µM) | 0.025 µg/mL (≈ 0.0423 µM) | 0.025 µg/mL (≈ 0.0423 µM) | 0.025 µg/mL (≈ 0.0423 µM) | 0.1 µg/mL (≈ 0.169 µM) | 0.05 µg/mL (≈ 0.0846 µM) | 6.25 µg/mL (≈ 10.6 µM) | 0.78 µg/mL (≈ 1.32 µM) | 3.13 µg/mL (≈ 5.3 µM) | 0.025 µg/mL (≈ 0.0423 µM) | 0.05 µg/mL (≈ 0.0846 µM) | 3.13 µg/mL (≈ 5.3 µM) | 0.78 µg/mL (≈ 1.32 µM) | 0.05 µg/mL (≈ 0.0846 µM) | 25 µg/mL (≈ 42.3 µM) | 0.2 µg/mL (≈ 0.339 µM)
CCON=C(C(=O)NC1C(=O)N2C(C(=O)[O-])=C(C[n+]3ccn4c(SCCO)ccc4c3)CSC12)c1csc(N)n1 (stereo not drawn) [Ex. 9, 7-β-[(Z)-2-(2-aminothiazol-4-yl)-2-ethoxyiminoacetamido]-3-[6-(2-HYDROXYETHYLTHIO)PYRROLO[1,2-a]pyrazinium-2-yl]methyl-3-cephem-4-carboxylate] | 3.13 µg/mL (≈ 5.18 µM) | 0.05 µg/mL (≈ 0.0828 µM) | 0.2 µg/mL (≈ 0.331 µM) | 0.05 µg/mL (≈ 0.0828 µM) | 0.1 µg/mL (≈ 0.166 µM) | 0.025 µg/mL (≈ 0.0414 µM) | 0.025 µg/mL (≈ 0.0414 µM) | 0.025 µg/mL (≈ 0.0414 µM) | ≤ 0.006 µg/mL | 0.012 µg/mL (≈ 0.0199 µM) | 3.13 µg/mL (≈ 5.18 µM) | 0.1 µg/mL (≈ 0.166 µM) | 0.39 µg/mL (≈ 0.646 µM) | ≤ 0.006 µg/mL | ≤ 0.006 µg/mL | 0.78 µg/mL (≈ 1.29 µM) | 0.2 µg/mL (≈ 0.331 µM) | 0.05 µg/mL (≈ 0.0828 µM) | 12.5 µg/mL (≈ 20.7 µM) | 0.1 µg/mL (≈ 0.166 µM)
